Source: BigSolDB 2.1

CN1c2ccccc2C(=O)N2CCc3c([nH]c4ccccc34)[C@H]21
solubility (mole fraction)
Conditions	283.15 K	288.15 K	293.15 K	298.15 K	303.15 K	308.15 K	313.15 K	318.15 K	323.15 K
in acetone	0.000192	0.000226	0.000267	0.000315	0.000364	0.000426	0.000491	0.000571	0.000651
in ethanol	5.94e-05	7.31e-05	8.95e-05	0.00011	0.000132	0.000157	0.000186	0.000222	0.000263
in isopropanol	6.79e-05	8.16e-05	9.91e-05	0.000121	0.000142	0.00017	0.0002	0.000237	0.000276
in methanol	3.43e-05	4.34e-05	5.4e-05	6.72e-05	8.31e-05	0.000102	0.000124	0.000149	0.000182
